What all share (format): in vivo
In one assay the test system is Spodoptera exigua Hübner. Briefly: Field efficacy trial of I-72 and Spodoptera exigua Hübner nucleopolyhedrovirus, Example 87, Table 87. Conditions: spraying. On the procedure: This trial was arranged in the field trial shed area of the Wuhan Vegetable Research Institute. The spraying method was adopted for pesticide application. The investigation method was to take samples at 5 points, with 2 fixed plants at each point. A total of 10 plants were investigated in each plot, and the trial was repeated four times. The population base of pests was investigated before the pesticide application, and investigations were performed 3 days and 7 days after the pesticide application. The amount of water used per mu was 30L. The calculation method for the efficacy of the test pesticides is as follows:
Test pesticides: A: Spodoptera exigua Hübner nucleopolyhedrovirus suspension with 3 billion PIBs (produced by Henan Jiyuan Baiyun Industrial Co., Ltd.); and B: compound I-72 (dissolved in acetone, 0.1% Tween 80 was added, and a 10% stock solution was prepared for use).

The test system of assay [1] is Sitobion miscanthi (Fabricius). Put plainly: whole plant or invertebrate. Conditions: Sitobion miscanthi, in Triticum aestivum; single pesticide, 10 mg/L; 48 hours; read-out: Measured mortality rate. As to the method:
Test target: Sitobion miscanthi (Fabricius).
(§1) Preparation of the pesticide solution: according to different test requirements, the test samples were accurately weighed respectively with an electronic analytical balance. The technical pesticides were dissolved in acetone, and then diluted with 0.1% Tween 80 water into a series of pesticide solutions with a certain concentration gradient according to the experimental design dosage.
Experimental method: first, wheat seedlings with uniform and consistent Sitobion miscanthi (Fabricius) were selected, with about 30-40 insects on each pot of wheat. Then, they were evenly sprayed with the pesticide solution in the order from low dosage to high dosage according to the experimental design, with 2.5 mL for each pot and 3 replicates for each treatment. In addition, a blank control CK was set up.
The treated test materials were placed in an observation room, and the temperature, humidity and illumination of the observation room could be adjusted as needed. The number of dead and alive insects was investigated 48 hours later, and the corrected mortality rate was calculated using the Abbott's formula.
The synergism of the mixture was evaluated by the Bliss method. According to the concept of independent joint action he proposed, Bliss believes that the theoretical mortality rate P when insecticides are used in combination can be calculated by the following formula: […]
Pm is the measured mortality rate (%) of the target when the first active ingredient is at a concentration of m; and Pn is the measured mortality rate (%) of the target when the second active ingredient is used at a concentration of n.
If the actual mortality rate of the target after the two active ingredients are mixed at a certain concentration is greater than theoretical mortality rate P, it is determined that the two active ingredients have a synergistic effect when used in combination at the set concentration, and otherwise, they have an antagonistic effect.

For assay [2], the system named is Aphis gossypii Glover nymphs. Briefly: Joint toxicity of I-72 + spiropidion, Example 28, Table 28. Conditions: Aphis gossypii; A = compound I-72, B = spiropidion; cotton leaf spraying; 48 hours; read-out: LC50. As to the method:
Test target: Aphis gossypii Glover nymphs, a sensitive strain reared indoors.
as §1
Experimental method: first, cotton leaves with uniform and consistent Aphis gossypii were selected, with about 30-40 insects on each leaf. Then, they were evenly sprayed with the pesticide solution in the order from low dosage to high dosage according to the experimental design, with 1.5 mL for each leaf and 3 replicates for each treatment. In addition, a blank control was set up.
The treated test materials were placed in an observation room, and the temperature, humidity and illumination of the observation room could be adjusted as needed. The number of dead and live insects was investigated 48 hours later. […] Then, the co-toxicity coefficient of each ratio was calculated using the Sun Y-P method to evaluate the mixing effect (the same as in Example 1).

The test system of assay [3] is adult Bemisia tabaci (Gennadius). Briefly: Joint toxicity of I-72 + emamectin benzoate, seedling spraying, Example 12, Table 12. Conditions: Bemisia tabaci; adults, kidney bean seedling spraying, 72 h; A = compound I-72, B = emamectin benzoate; read-out: LC50. From the text:
Test subject: adult Bemisia tabaci (Gennadius), a sensitive strain reared indoors.
Experimental method: the spraying method was adopted. The kidney bean seedlings cultivated in the greenhouse were selected and evenly sprayed with the pesticide solution in the order from low dosage to high dosage according to the experimental design. After natural air-drying in the shade, a self-made glass cover was put on, and the test insects were introduced, with 20-30 insects for each treatment and 3 replicates. In addition, a blank control was set up. The number of dead and live insects was investigated 72 hours later. The corrected mortality rate was calculated using the Abbott's formula, and the DPS data processing software was used for statistical analysis to calculate the toxicities (LC50 values) of the single test pesticides and the mixtures under the test ratios.
The test conditions, the preparation of the pesticide solution and the evaluation method were the same as those in Example 1.

In assay [4] the test system is Nilaparvata lugens (Stal) nymphs. Briefly: Joint toxicity of I-72 + triflumezopyrim, Example 75, Table 75. Conditions: Nilaparvata lugens; A = compound I-72, B = triflumezopyrim; potted-seedling spraying; 72 hours; read-out: LC50. As to the method:
Test target: Nilaparvata lugens (Stal) nymphs, a sensitive strain reared indoors.
as §1
Experimental method: the activity of the mixture against the Nilaparvata lugens (Stal) nymphs was determined by adopting the potted-seedling spraying method. First, rice seedlings were planted in culture pots. Uniform spraying was performed with the pesticide solution in the order from low dosage to high dosage according to the experimental design, with 2 mL for each seedling. Then, Nilaparvata lugens nymphs of uniform size were transferred onto the rice seedlings, with 3 replicates for each treatment. In addition, a blank control was set up.
The treated test materials were placed in an observation room, and the temperature, humidity and illumination of the observation room could be adjusted as needed. The number of dead and live insects was investigated 72 hours later. […] Then, the co-toxicity coefficient of each ratio was calculated using the Sun Y-P method to evaluate the mixing effect (the same as in Example 1).

In assay [5] the test system is 3rd-instar larvae of Chilo suppressalis (Walker). Put plainly: Joint toxicity of I-72 + organophosphorus insecticides, rice seedling dipping, Example 15, Table 15. Conditions: 3rd-instar larvae, rice seedling dipping, 48 h, A = compound I-72, B = diazinon, read-out: LC50. As to the method:
Test target: 3rd-instar larvae of Chilo suppressalis (Walker), a sensitive strain reared indoors.
as §1
Experimental method: first, tender and fresh rice seedlings were selected and dipped in the prepared pesticide solution for 10 s in the order from low dosage to high dosage according to the experimental design. After natural air-drying in the shade, they were cut into small sections of 5 cm, placed in a 9-cm-diameter Petri dish with filter paper, and uniform and healthy test insects were introduced, with 10 insects for each treatment and 3 replicates for each treatment. In addition, a blank control was set up.
The treated test materials were placed in an observation room, and the temperature, humidity and illumination of the observation room could be adjusted as needed. The number of dead and live insects was investigated 48 hours later. The corrected mortality rate was calculated using the Abbott's formula, and statistical analysis was performed with the DPS data processing software to obtain the toxicity regression equation, LC50 value and 95% confidence limit of each single test pesticide and each mixture of different ratios. Then, the co-toxicity coefficient of each ratio was calculated using the Sun Y-P method to evaluate the mixing effect (the same as in Example 1).

For orientation: mortality means the percentage killed. The term LC50 denotes the concentration lethal to half of the exposed cells or organisms. `CN(C(=O)c1ccc2c(c1)OC(F)(F)O2)c1cccc(C(=O)Nc2c(Br)cc(C(F)(C(F)(F)F)C(F)(F)F)cc2OC(F)F)c1F` [Compound I-72]: the “Control efficacy 3 days after pesticide application” value with Spodoptera exigua Hübner (dose 6 ml per mu) was 59.8%; in the assay with Spodoptera exigua Hübner (dose 9 ml per mu) it was 66.5%; with Spodoptera exigua Hübner (dose 12 ml per mu), 72.8%. For the same molecule, the “Control efficacy 7 days after pesticide application” value is given as 71.5% with Spodoptera exigua Hübner (dose 6 ml per mu), 75.2% with Spodoptera exigua Hübner (dose 9 ml per mu) and 82.4% in the assay with Spodoptera exigua Hübner (dose 12 ml per mu). In addition, the mortality at 10 µg/mL in assay [1] was determined as 64.2%. In addition, the LC50 in assay [2] is 3.19 µg/mL; in assay [3], 2.97 µg/mL; in assay [4], 285 µg/mL; in assay [5], 1.76 µg/mL.

The values are drawn from patent US20260198495A1, “BINARY INSECTICIDE COMPOSITION AND USE THEREOF” (SHENYANG SINOCHEM AGROCHEMICALS R & D CO., LTD., priority 2022, published 2026).
